Experimental data from patent US11952349B2, “Anti-cancer nuclear hormone receptor-targeting compounds” (Nuvation Bio Inc., priority 2019, dated 2024).
Read-outs that look alike come from different tables or passages of the source.

Assays:
[1] = molecular target: Human recombinant PARP1 (Homo sapiens, UniProt P09874); experiment: RBC HotSpot PARP1 assay (radioisotope-based filter binding); assay type: biochemical
Experimental: (§1) The following methods are for evaluating the in vitro biology properties of the test articles. • a. RBC HotSpot Poly(ADP-ribose) Polymerases 1 (PARP1) and Poly(ADP-ribose) Polymerases 2 (PARP2) Assays: The assay was conducted at Reaction Biology Corporation (RBC; Malvern, PA). The assay principle is radioisotope-based filter binding assay where incorporation of radioisotope-labeled NAD^+ into the substrate captured on filter is detected after washout free NAD^+. Data were analyzed using Excel and GraphPad Prism software for IC50 curve fits. Each assay was conducted with PJ34 as a positive control. PARP1 assay: Human recombinant PARP1 at a final concentration of 2.5 nM was combined with histone H4 (20 μM) and test articles at various concentrations in reaction buffer (50 mM Tris-HCL, pH 8.0, 50 mM NaCl, 10 mM MgCl2, 1 mM DTT, 1% DMSO, and 20 μg/mL activated DNA). The solution was inoculated for 20 min at room temperature and the reaction initiated by adding [adenylate-^32P]-Nicotinamide Adenine Dinucleotide, ^32P-NAD^+ at a final concentration of 10 μM. After incubation for 2 hrs at room temperature, the reaction mixture was filtered and washed with 0.75% phosphoric acid for radioactivity detection. • ii. PARP2 assay: Human recombinant PARP2 at a final concentration of 2.5 nM was combined with histone H3 (20 μM) and test articles at various concentrations in reaction buffer (50 mM Tris-HCL, pH 8.0, 50 mM NaCl, 10 mM MgCl2, 1 mM DTT, 1% DMSO, and 20 μg/mL activated DNA). The solution was inoculated for 20 min at room temperature and the reaction was initiated by adding [adenylate-^32P]-Nicotinamide Adenine Dinucleotide, ^32P-NAD^+ at a final concentration of 10 μM. After incubation for 2 hrs at room temperature, the reaction mixture was filtered and washed with 0.75% phosphoric acid for radioactivity detection. • b. AR binding assay: AR in LNCaP cytosol was used for determining the binding affinity of test articles and the reference compound—progesterone (Sigma, Cat: E2785, St. Louis, MO). IC50 s were determined using 8 concentrations/compound. Cytosol is plated at 200 μg/well (100 μL) into a 96-well conical polypropylene plate (Agilent, Cat: 5042-1385, Santa Clara, CA) and mixed with 3 μL of test compound. After adding 100 μL of ^3H-methyltrienolone (PerkinElmer, Cat: NET590250UC, San Jose, CA), the plate was sealed and shaken at 300 rpm at 4° C. for 24 hours. Post incubation, 100 μL of radioligand adsorption buffer containing 10 mM Tris-HCl, pH 7.4; 1.5 mM EDTA; 1 mM DTT; 0.25% charcoal; 0.0025% dextran was added to individual wells. Plate was shaken for 15 min at 4° C. followed by centrifugation at 3000 rpm for 30 min at 4° C. 150 μL of supernatant is transferred into scint-tube (PerkinElmer, Cat: 6000192) and mixed with 2 mL of Ultima Gold Cocktail (PerkinElmer, Cat: 6013329). Radioactivity is counted using a TriCarb 2910 TR scintillation counter (PerkinElmer). Inhibition of the radioactivity by test articles was calculated using the equation below: % Inhibition=(1−(Assay well−Average_LC)/(Average_HC−Average_LC))×100%. • IC50 values (Table 6) were calculated and graphed using the model “log(inhibitor) vs. response—Variable slope” included in GraphPad Prism 5 (San Diego, CA). The Ki values were further calculated using the equation below where [L] is the radioligand concentration (1 nM) used in this study. Kd value was 0.332 nM. Ki=IC50/(1+[L]/Kd) • c. AR transactivation: Human AR cloned into a CMV vector backbone is used for the transactivation study. HEK-293 cells are plated at 80,000 cells per well of a 24 well plate in DME+5% csFBS. Twenty four hours later, the cells are transfected using Lipofectamine (Invitrogen, Carlsbad, CA) with 0.25 μg GRE-LUC, 0.01 μg CMV-LUC (renilla luciferase) and 25 ng of the AR in OPTIMEM medium. The cells are treated 24 hrs after transfection with various ligands (10^−12 to 10^−5 M final concentrations) and luciferase assay performed 48 hours after transfection. […]

[2] = molecular target: Human recombinant PARP2 (Homo sapiens, UniProt Q9UGN5); experiment: RBC HotSpot PARP2 assay (radioisotope-based filter binding); assay type: biochemical
Human recombinant PARP2, sequence (Q9UGN5 whole entry): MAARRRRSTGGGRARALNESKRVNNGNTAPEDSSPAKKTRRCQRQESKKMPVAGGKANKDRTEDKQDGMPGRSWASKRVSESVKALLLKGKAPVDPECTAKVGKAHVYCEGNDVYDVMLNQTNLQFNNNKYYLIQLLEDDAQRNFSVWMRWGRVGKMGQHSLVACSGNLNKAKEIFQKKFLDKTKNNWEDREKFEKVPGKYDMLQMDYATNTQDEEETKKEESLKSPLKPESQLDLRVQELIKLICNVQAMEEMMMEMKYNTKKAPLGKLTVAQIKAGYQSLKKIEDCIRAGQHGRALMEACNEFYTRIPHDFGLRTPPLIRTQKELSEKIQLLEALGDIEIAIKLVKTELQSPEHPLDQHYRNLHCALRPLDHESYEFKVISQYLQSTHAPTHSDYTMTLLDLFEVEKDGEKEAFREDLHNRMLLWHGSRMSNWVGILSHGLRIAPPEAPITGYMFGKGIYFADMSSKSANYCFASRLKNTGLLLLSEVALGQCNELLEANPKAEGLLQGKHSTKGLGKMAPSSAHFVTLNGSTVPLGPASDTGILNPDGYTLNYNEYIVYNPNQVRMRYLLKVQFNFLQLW
Experimental: as §1

[3] = molecular target: T1, Progesterone Receptor (PR)-LBD (Homo sapiens, UniProt P06401); experiment: PR coactivator antagonist assay; assay type: biochemical; conditions: Table 8; 10 nM progesterone; read-out: PR antagonism
T1 sequence (P06401 679-913 limits assumed): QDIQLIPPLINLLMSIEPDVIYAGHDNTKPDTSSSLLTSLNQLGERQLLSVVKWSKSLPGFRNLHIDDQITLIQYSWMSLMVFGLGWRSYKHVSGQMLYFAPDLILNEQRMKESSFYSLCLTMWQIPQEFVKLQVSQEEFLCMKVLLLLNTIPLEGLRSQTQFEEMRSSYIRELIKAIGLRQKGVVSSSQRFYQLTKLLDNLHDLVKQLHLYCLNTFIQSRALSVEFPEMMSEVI
Experimental: PR coactivator antagonist assay: Test compound (Top dose 10 μM, 4 fold serial dilution, 8 point dose response) and/or vehicle was incubated with the 2.5 nM Progesterone Receptor (PR)-LBD and coactivator peptide for 30 minutes at RT. Determination of the amount of complex formed is read spectrofluorimetrically (excitation: 337 nm, emission: 520/490 nm). Test compound-induced inhibition of 10 nM progesterone-induced fluorescence response by 50 percent or more (>50%) indicates receptor antagonist activity.

[4] = tested on: T47D cells; experiment: Cell viability assay (CellTiterGlo, 6 days) T47D; assay type: cell-based; conditions: Homo sapiens, 144 h, Table 8
Experimental: Cell viability assay: LNCap, 22Rv1, and T47D cells were seeded at a density of 1500-2000 cells/well in 96 well plates, and a ‘T0’ (timepoint 0) was included along with the assay plate. The plates were then incubated at 37° C., 5% CO2 in a cell culture incubator overnight. On the next day, the ‘T0’ plate was assayed using CellTiterGlo (Promega, Inc) according to the manufacturer's instructions. The appropriate compounds were diluted in DMSO and added to the assay plate (final DMSO concentration of 0.2%) on the next day. The assay plates were incubated for 6 days at 37° C., 5% CO2. After the incubation period, the plates were assayed using CellTiterGlo (Promega, Inc) according to the manufacturer's instructions and luminescence was read on the EnVision plate reader. Inhibition the tested compounds was determined by the following formula: Inhibition rate (%)=(1−(RLU compound−RLU day0)/(RLU control−RLU day0))*100%. GraphPadPrism was used to analyze the data and determine absolute IC50 values.

Human recombinant PARP1, sequence (P09874 whole entry): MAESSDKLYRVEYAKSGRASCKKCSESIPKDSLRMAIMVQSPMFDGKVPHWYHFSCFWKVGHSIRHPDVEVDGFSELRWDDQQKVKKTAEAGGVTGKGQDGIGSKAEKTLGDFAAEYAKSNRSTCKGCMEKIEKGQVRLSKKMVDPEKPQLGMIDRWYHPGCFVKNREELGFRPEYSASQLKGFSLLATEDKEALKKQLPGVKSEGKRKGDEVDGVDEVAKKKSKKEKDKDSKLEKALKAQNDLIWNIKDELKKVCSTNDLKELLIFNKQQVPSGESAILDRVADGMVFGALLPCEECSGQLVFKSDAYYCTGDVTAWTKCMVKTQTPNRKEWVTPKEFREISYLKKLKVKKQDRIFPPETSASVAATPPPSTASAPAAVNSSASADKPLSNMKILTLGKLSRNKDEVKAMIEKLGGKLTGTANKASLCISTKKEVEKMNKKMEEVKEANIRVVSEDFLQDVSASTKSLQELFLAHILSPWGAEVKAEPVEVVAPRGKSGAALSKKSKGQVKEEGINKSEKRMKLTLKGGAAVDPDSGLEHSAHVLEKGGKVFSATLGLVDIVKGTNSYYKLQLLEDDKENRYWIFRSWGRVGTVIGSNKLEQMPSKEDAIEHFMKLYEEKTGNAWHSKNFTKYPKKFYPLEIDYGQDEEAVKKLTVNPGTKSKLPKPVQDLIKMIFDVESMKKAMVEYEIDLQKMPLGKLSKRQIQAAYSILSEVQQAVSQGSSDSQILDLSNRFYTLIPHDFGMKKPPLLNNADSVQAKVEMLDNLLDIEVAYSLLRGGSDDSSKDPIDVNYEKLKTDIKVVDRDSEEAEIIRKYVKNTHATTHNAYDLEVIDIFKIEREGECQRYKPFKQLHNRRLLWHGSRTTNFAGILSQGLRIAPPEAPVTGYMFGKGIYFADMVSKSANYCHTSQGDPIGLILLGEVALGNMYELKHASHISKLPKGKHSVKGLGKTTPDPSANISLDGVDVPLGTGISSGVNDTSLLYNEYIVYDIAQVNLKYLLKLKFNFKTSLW

SMILES	IC50 ([1]; Table 9, read-out: PARP1) [nM]	IC50 ([2]; Table 9, read-out: PARP2) [nM]	IC50 [3] [nM]	IC50 [4] [nM]	IC50 ([1]; Table 5, in vitro results, read-out: PARP1 IC50) [nM]	IC50 ([2]; Table 5, in vitro results, read-out: PARP2 IC50) [nM]
C[C@@]12CCC(=O)C[C@H]1CC[C@H]1[C@H]2CC[C@]2(C)[C@@H]1CC[C@H]2OCCCCCCNC(=O)c1cc(Cc2n[nH]c(=O)c3ccccc23)ccc1F (stereo in doubt) [Compound 1426, N-(6-((5R,8S,9R,10R,13R,14R,17R)-10,13-dimethyl-3-oxohexadecahydro-1H-cyclopenta[a]phenanthren-17-yloxy)hexyl)-2-fluoro-5-((4-oxo-3,4-dihydrophthalazin-1-yl)methyl)benzamide]	> 100	1 to 10	–	–	–	–
CC#C[C@]1(O)CC[C@H]2[C@@H]3CCC4=CC(=O)CCC4=C3[C@@H](c3ccc(N(C)CCCCCC(=O)N4CCN(C(=O)c5cc(Cc6n[nH]c(=O)c7ccccc67)ccc5F)CC4)cc3)C[C@@]21C [Compound 135, 4-(4-fluoro-3-(4-(6-((4-((8S,11R,13S,14S,17S)-17-hydroxy-13-methyl-3-oxo-17-(prop-1-ynyl)-2,3,6,7,8,11,12,13,14,15,16,17-dodecahydro-1H-cyclopenta[a]phenanthren-11-yl)phenyl)(methyl)amino)hexanoyl)piperazine-1-carbonyl)benzyl)phthalazin-1(2H)-one]	1 to 10	< 1	< 10	100 to 1000	–	–
C[C@]12C[C@H](CCCCCC(=O)N3CCN(C(=O)c4cc(Cc5n[nH]c(=O)c6ccccc56)ccc4F)CC3)C3=C4CCC(=O)C=C4CC[C@H]3[C@@H]1CCC2O (stereo partly drawn) [Compound 138, 4-(4-fluoro-3-(4-(6-((8S,11S,13S,14S)-17-hydroxy-13-methyl-3-oxo-2,3,6,7,8,11,12,13,14,15,16,17-dodecahydro-1H-cyclopenta[a]phenanthren-11-yl)hexanoyl)piperazine-1-carbonyl)benzyl)phthalazin-1(2H)-one]	< 1	< 1	–	–	–	–
Cn1ncnc1C1c2n[nH]c(=O)c3cc(F)cc(c23)N[C@@H]1c1ccc(NC(=O)CCCCCO[C@@H]2CC[C@H]3[C@@H]4CC[C@H]5CCCC[C@]5(C)[C@H]4CC[C@]23C)cc1 (stereo partly drawn) [Compound 1128, 6-((5R,8R,9S,10S,13S,14S,17R)-10,13-dimethylhexadecahydro-1H-cyclopenta[a]phenanthren-17-yloxy)-N-(4-((8S)-5-fluoro-9-(1-methyl-1H-1,2,4-triazol-5-yl)-3-oxo-3,7,8,9-tetrahydro-2H-pyrido[4,3,2-de]phthalazin-8-yl)phenyl)hexanamide]	–	–	–	–	252	14
CC(=O)O[C@]1(C(C)=O)CC[C@H]2[C@@H]3CCC4=CC(=O)CCC4=C3[C@@H](c3ccc(N(C)CCCCCC(=O)N4CCN(C(=O)c5cc(Cc6n[nH]c(=O)c7ccccc67)ccc5F)CC4)cc3)C[C@@]21C [Compound 1378, (8S,11R,13S,14S,17R)-17-acetyl-11-(4-((6-(4-(2-fluoro-5-((4-oxo-3,4-dihydrophthalazin-1-yl)methyl)benzoyl)piperazin-1-yl)-6-oxohexyl)(methyl)amino)phenyl)-13-methyl-3-oxo-2,3,6,7,8,11,12,13,14,15,16,17-dodecahydro-1H-cyclopenta[a]phenanthren-17-yl acetate]	1 to 10	< 1	< 10	100 to 1000	–	–
CC(=O)O[C@]1(C(C)=O)CC[C@H]2[C@@H]3CCC4=CC(=O)CCC4=C3[C@@H](c3ccc(N(C)CCCCCC(=O)NCCOCCOCC(=O)N4CCN(C(=O)c5cc(Cc6n[nH]c(=O)c7ccccc67)ccc5F)CC4)cc3)C[C@@]21C [Compound 1384, (8S,11R,13S,14S,17R)-17-acetyl-11-(4-((6-(2-(2-(2-(4-(2-fluoro-5-((4-oxo-3,4-dihydrophthalazin-1-yl)methyl)benzoyl)piperazin-1-yl)-2-oxoethoxy)ethoxy)ethylamino)-6-oxohexyl)(methyl)amino)phenyl)-13-methyl-3-oxo-2,3,6,7,8,11,12,13,14,15,16,17-dodecahydro-1H-cyclopenta[a]phenanthren-17-yl acetate]	1 to 10	< 1	< 10	1000 to 10000	–	–
C[C@]12CC[C@H]3[C@@H](CCC4=CC(=O)CC[C@@]43C)[C@@H]1CC[C@@H]2C(=O)COCCCCCC(=O)N1CCN(C(=O)c2cc(Cc3n[nH]c(=O)c4ccccc34)ccc2F)CC1 [Compound 1386, 4-(3-(4-(6-(2-((8S,9S,10R,13S,14S,17S)-10,13-dimethyl-3-oxo-2,3,6,7,8,9,10,11,12,13,14,15,16,17-tetradecahydro-1H-cyclopenta[a]phenanthren-17-yl)-2-oxoethoxy)hexanoyl)piperazine-1-carbonyl)-4-fluorobenzyl)phthalazin-1(2H)-one]	1 to 10	< 1	> 10000	100 to 1000	–	–
C[C@]12Cc3cn[nH]c3C[C@@H]1CC[C@@H]1[C@@H]2CC[C@]2(C)[C@@H](OCCCCCC(=O)N3CCN(C(=O)c4cc(Cc5n[nH]c(=O)c6ccccc56)ccc4F)CC3)CC[C@@H]12 [Compound 1394, 4-(3-(4-(6-(((1S,3aS,3bR,5aS,10aS,10bS,12aS)-10a,12a-dimethyl-1,2,3,3a,3b,4,5,5a,6,7,10,10a,10b,11,12,12a-hexadecahydrocyclopenta[5,6]naphtho[1,2-f]indazol-1-yl)oxy)hexanoyl)piperazine-1-carbonyl)-4-fluorobenzyl)phthalazin-1(2H)-one]	10 to 100	1 to 10	–	–	–	–
